Source: patent publication US20240425497A1, “Cbl-b Inhibitors and Methods of Use Thereof” (ARCUS BIOSCIENCES, INC., priority 2023, published 2024)

Tests used:
Jurkat cells = test: IL-2 secretion assay in CD3/CD28-activated Jurkat cells (AlphaLISA); format: cell-based, human; details: Homo sapiens, CD3/CD28 activation, 24 h
Protocol: Certain compounds were also evaluated in an IL-2 secretion assay. On the day of the assay, a 16 point, 1:2 master serial dilution of each compound was prepared in Opti-MEM to span a final concentration range of […]. Assays were set up in CORNING® tissue culture-treated 384-well microplates containing 60 nL of each dilution. Jurkat cells grown in RPMI-1640 supplemented with 10% FBS, 1% Glutamax, and 1% Pen/Strep were collected, resuspended in Opti-MEM. 50,000 cells/well and added to the compound plates. After a short spin (1200 rpm for 1 min), the plates were incubated at 37° C. for 1 hour. The cells were activated by adding 15 μL of IMMUNOCULT™ Human CD3/CD28 T Cell Activator (STEMCELL Technologies) diluted in Opti-MEM. After 24 h of incubation at 37° C., aliquots of culture supernatants were transferred to OptiPlate-384 (PerkinElmer) microplates. The level of JIL-2 secretion in the supernatants was then determined using the IL-2 (human) AiphaLISA Detection Kit (PerkinElmer) according to the manufacturer's recommendations. The AiphaLISA signal was measured using an EnVision plate reader (PerkinElmer). EC50 values were determined by fitting the data to a standard 4-parameter logistic equation. See Table 3 for data for select compounds (IL-2 Secretion (EC50)).

Cbl-b = Cbl-b (Homo sapiens (Human), UniProt Q13191); test: Cbl-b probe displacement HTRF binding assay; details: 0.4 nM biotinylated Cbl-b, 150 nM BODIPY probe
Protocol: The affinity with which compounds of the present disclosure bind to Cbl-b was assessed using probe displacement homologous time resolved fluorescence (HTRF) assays. The assays used a BODIPY™ conjugated probe (Example 54 from WO 2020264398) and biotinylated Cbl-b. The assays were performed in assay buffer consisting of 20 mM Hepes, 150 mM NaCl, 0.01% Triton X-100, 0.5 mM TCEP, 0.01% BSA. On the day of the assay, a 20 point, 1:2 master serial dilution of each compound was prepared in DMSO to span a final concentration range of 10 μM to 0 nM. Two hundred nanoliters of diluted compound was added to each well of a 384-well plate. Fifteen microliters of biotinylated-Cbl-b resuspended in assay buffer were added to each well and the plate incubated for 60 minutes at room temperature prior to addition of 5 μL of BODIPY™ probe in assay buffer. Final assay conditions included 0.4 nM of Cbl-b and 150 nM of BODIPY™ probe. After a further 15 minutes of incubation at room temperature, 5 μl of Streptavidin-Terbium cryptate reagent at 5-fold final concentration was added to each well of the 384-well plate. Binding of a probe to Cbl-b results in an increase of HTRF signal. HTRF signal was measured by Envision plate reader, while competition of a compound of the present disclosure with probe results in a decrease of signal. Percentage maximum activity in each test well was calculated based on DMSO (maximum activity, 0% displacement) and no protein control wells (baseline activity, 100% displacement). Binding affinity was determined from a dose response curve fitted using a standard four parameter fit equation. See Table 3 for data for compounds (Cbl-b Binding (IC50)).

Chain of Cbl-b (Q13191 whole entry, species assumed): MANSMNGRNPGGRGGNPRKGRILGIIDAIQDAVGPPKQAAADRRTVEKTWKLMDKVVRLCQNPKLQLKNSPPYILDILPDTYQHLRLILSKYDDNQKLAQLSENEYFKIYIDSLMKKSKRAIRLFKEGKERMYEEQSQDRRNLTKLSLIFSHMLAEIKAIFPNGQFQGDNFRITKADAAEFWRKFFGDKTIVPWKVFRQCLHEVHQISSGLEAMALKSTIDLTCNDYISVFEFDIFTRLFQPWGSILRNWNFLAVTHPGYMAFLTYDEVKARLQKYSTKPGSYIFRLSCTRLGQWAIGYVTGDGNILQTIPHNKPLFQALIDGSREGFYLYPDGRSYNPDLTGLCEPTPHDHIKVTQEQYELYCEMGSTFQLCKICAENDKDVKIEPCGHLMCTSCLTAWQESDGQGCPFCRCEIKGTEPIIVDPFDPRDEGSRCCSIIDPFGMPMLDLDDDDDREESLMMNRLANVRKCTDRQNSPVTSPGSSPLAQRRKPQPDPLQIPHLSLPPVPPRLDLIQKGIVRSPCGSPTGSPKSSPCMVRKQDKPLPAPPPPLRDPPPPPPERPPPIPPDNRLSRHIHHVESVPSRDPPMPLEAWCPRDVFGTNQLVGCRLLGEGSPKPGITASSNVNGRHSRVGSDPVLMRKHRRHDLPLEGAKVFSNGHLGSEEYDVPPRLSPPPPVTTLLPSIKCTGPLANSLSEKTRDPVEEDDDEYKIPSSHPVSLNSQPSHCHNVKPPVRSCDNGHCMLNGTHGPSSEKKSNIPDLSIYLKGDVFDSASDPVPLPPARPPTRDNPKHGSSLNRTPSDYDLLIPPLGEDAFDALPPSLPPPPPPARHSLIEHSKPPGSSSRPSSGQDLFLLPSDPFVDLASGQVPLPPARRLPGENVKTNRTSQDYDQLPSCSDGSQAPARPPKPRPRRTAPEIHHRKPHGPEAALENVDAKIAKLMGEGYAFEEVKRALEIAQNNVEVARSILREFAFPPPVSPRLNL

Row | SMILES | EC50 (Jurkat cells) | IC50 (Cbl-b)
1 | CC1CCN1C(=O)c1cc(F)ccc1-c1cc(C2CC2)nc(-n2cc(C3CC3)c3cc(CN4CCC[C@H](C)C4)[nH]c3c2=O)c1 (stereo partly drawn) [Example 15, 2-{[(S)-3-methyl-1-piperidyl]methyl}-4-cyclopropyl-6-(6-cyclopropyl-4-{4-fluoro-2-[(2-methyl-1-azetidinyl)carbonyl]phenyl}-2-pyridyl)-1,6-dihydro-1,6-diaza-7-indenone] | 100 to 1000 nM | < 100 nM
2 | C[C@H]1CCCN(Cc2cc3c(C4CC4)cn(-c4cc(-c5ccc(F)cc5C(=O)N5CC(C#N)C5)cc(C5CC5)n4)c(=O)c3[nH]2)C1 [Example 16, 1-{2-[2-(2-{[(S)-3-methyl-1-piperidyl]methyl}-4-cyclopropyl-7-oxo-1,6-dihydro-1,6-diaza-6-indenyl)-6-cyclopropyl-4-pyridyl]-5-fluorobenzoyl}-3-azetidinecarbonitrile] | < 100 nM | < 100 nM
3 | O=C(c1cc(F)ccc1-c1cc(C2CC2)nc(-n2cc(C3CC3)c3cc(CN[C@H]4CCC[C@H]4O)[nH]c3c2=O)c1)N1CC(F)C1 [Example 17, 2-{[(1S,2R)-2-hydroxycyclopentylamino]methyl}-4-cyclopropyl-6-(6-cyclopropyl-4-{4-fluoro-2-[(3-fluoro-1-azetidinyl)carbonyl]phenyl}-2-pyridyl)-1,6-dihydro-1,6-diaza-7-indenone] | < 100 nM | < 100 nM
4 | C[C@H]1CCCN(Cc2cc3c(C4CC4)cn(-c4cc(-c5ccc(F)cc5C(N)=O)cc(C5CC5)n4)c(=O)c3[nH]2)C1 [Example 18, 2-[2-(2-{[(S)-3-methyl-1-piperidyl]methyl}-4-cyclopropyl-7-oxo-1,6-dihydro-1,6-diaza-6-indenyl)-6-cyclopropyl-4-pyridyl]-5-fluorobenzamide] | 100 to 1000 nM | 100 to 1000 nM
5 | C[C@H]1CCCN(Cc2cc3c(C#N)cn(-c4cc(-c5ccc(F)c(F)c5C(=O)N(C)C)cc(C5CC5)n4)c(=O)c3[nH]2)C1 [Example 19, N,N-dimethyl6-[2-(2-{[(S)-3-methyl-1-piperidyl]methyl}-4-cyano-7-oxo-1,6-dihydro-1,6-diaza-6-indenyl)-6-cyclopropyl-4-pyridyl]-2,3-difluorobenzamide] | 100 to 1000 nM | < 100 nM
6 | C[C@H]1CCCN(Cc2cc3c(C#N)cn(-c4cc(-c5cccnc5C(=O)N(C)C)cc(C5CC5)n4)c(=O)c3[nH]2)C1 [Example 20, N,N-dimethyl-2′-(2-{[(S)-3-methyl-1-piperidyl]methyl}-4-cyano-7-oxo-1,6-dihydro-1,6-diaza-6-indenyl)-6′-cyclopropyl-[3,4′-bipyridyl]-2-carboxamide] | 1000 to 5000 nM | 100 to 1000 nM
7 | C[C@H]1CCCN(Cc2cc3c(C#N)cn(-c4cc(-c5ccc(F)cc5C(=O)N5CC(F)C5)cc(C5CC5)n4)c(=O)c3[nH]2)C1 [Example 21, 2-{[(S)-3-methyl-1-piperidyl]methyl}-6-(6-cyclopropyl-4-{4-fluoro-2-[(3-fluoro-1-azetidinyl)carbonyl]phenyl}-2-pyridyl)-7-oxo-1,6-dihydro-1,6-diaza-4-indenecarbonitrile] | < 100 nM | < 100 nM
8 | C[C@H]1CCCN(Cc2cc3c(C#N)cn(-c4cc(C#N)cc(-c5ccc(F)cc5C(=O)N5CC(F)C5)c4)c(=O)c3[nH]2)C1 [Example 22, 2-{[(S)-3-methyl-1-piperidyl]methyl}-6-{5-cyano-4′-fluoro-2′-[(3-fluoro-1-azetidinyl)carbonyl]-3-biphenylyl}-7-oxo-1,6-dihydro-1,6-diaza-4-indenecarbonitrile] | 100 to 1000 nM | < 100 nM
9 | C[C@H]1CCCN(Cc2cc3c(C#N)cn(-c4cc(-c5ccc(F)cc5C(=O)N5CC(F)C5)cc(C(F)(F)F)c4)c(=O)c3[nH]2)C1 [Example 23, 2-{[(S)-3-methyl-1-piperidyl]methyl}-6-{4′-fluoro-2′-[(3-fluoro-1-azetidinyl)carbonyl]-5-(trifluoromethyl)-3-biphenylyl}-7-oxo-1,6-dihydro-1,6-diaza-4-indenecarbonitrile] | 1000 to 5000 nM | 100 to 1000 nM
10 | C[C@H]1CCCN(Cc2cc3c(C#N)cn(-c4cncc(-c5ccc(F)cc5C(=O)N5CC(F)C5)c4)c(=O)c3[nH]2)C1 [Example 24, 2-{[(S)-3-methyl-1-piperidyl]methyl}-6-(5-{4-fluoro-2-[(3-fluoro-1-azetidinyl)carbonyl]phenyl}-3-pyridyl)-7-oxo-1,6-dihydro-1,6-diaza-4-indenecarbonitrile] | 100 to 1000 nM | 100 to 1000 nM
11 | C[C@H]1CCCN(Cc2cc3ncn(-c4cc(-c5ccc(F)cc5C(=O)N5CC(F)C5)cc(C5CC5)n4)c(=O)c3[nH]2)C1 [Example 25, 2-{[(S)-3-methyl-1-piperidyl]methyl}-6-(6-cyclopropyl-4-{4-fluoro-2-[(3-fluoro-1-azetidinyl)carbonyl]phenyl}-2-pyridyl)-1,6-dihydro-1,4,6-triaza-7-indenone] | < 100 nM | < 100 nM
12 | C[C@@H]1CN(Cc2cc3ncn(-c4cc(-c5ccc(F)cc5C(=O)N5CC(F)C5)cc(C5CC5)n4)c(=O)c3[nH]2)CCO1 [Example 26, 3-[6-cyclopropyl-4-[4-fluoro-2-(3-fluoroazetidine-1-carbonyl)phenyl]pyridin-2-yl]-6-[[(2R)-2-methylmorpholin-4-yl]methyl]-5H-pyrrolo[3,2-d]pyrimidin-4-one] | < 100 nM | < 100 nM
13 | CC(O)c1cc2ncn(-c3cc(-c4ccc(F)cc4C(=O)N4CC(F)C4)cc(C4CC4)n3)c(=O)c2[nH]1 (stereo not shown) [Example 27, 6-(6-cyclopropyl-4-{4-fluoro-2-[(3-fluoro-1-azetidinyl)carbonyl]phenyl}-2-pyridyl)-2-(1-hydroxyethyl)-1,6-dihydro-1,4,6-triaza-7-indenone] | 1000 to 5000 nM | 100 to 1000 nM
14 | C[C@H]1CCCN(Cc2ccc3c(c2)C(=O)N(c2cc(-c4ccc(F)cc4C(=O)N4CC(F)C4)cc(C4CC4)n2)C3)C1 [Example 28, 6-{[(S)-3-methyl-1-piperidyl]methyl}-2-(6-cyclopropyl-4-{4-fluoro-2-[(3-fluoro-1-azetidinyl)carbonyl]phenyl}-2-pyridyl)-1-isoindolinone] | 100 to 1000 nM | < 100 nM
15 | C[C@H]1CCCN(Cc2nc3c(C4CC4)cn(-c4cc(-c5ccc(F)cc5C(=O)N5CC(F)C5)cc(C5CC5)c4)c(=O)c3[nH]2)C1 [Example 29, 7-cyclopropyl-5-[3-cyclopropyl-5-[4-fluoro-2-(3-fluoroazetidine-1-carbonyl)phenyl]phenyl]-2-[[(3S)-3-methylpiperidin-1-yl]methyl]-3H-imidazo[4,5-c]pyridin-4-one] | < 100 nM | < 100 nM
16 | C[C@H]1CCCN(Cc2cc3c(C4CC4)cn(-c4cc(-c5ccc(F)cc5C(=O)N5CC(F)C5)nc(C5CC5)n4)c(=O)c3[nH]2)C1 [Example 30, 4-cyclopropyl-6-[2-cyclopropyl-6-[4-fluoro-2-(3-fluoroazetidine-1-carbonyl)phenyl]pyrimidin-4-yl]-2-[[(3S)-3-methylpiperidin-1-yl]methyl]—1H-pyrrolo[2,3-c]pyridin-7-one] | < 100 nM | < 100 nM
17 | C[C@H]1CCCN(Cc2cc3c(C4CC4)cn(-c4nc(-c5ccc(F)cc5C(=O)N5CC(F)C5)cc(C5CC5)n4)c(=O)c3[nH]2)C1 [Example 31, 4-cyclopropyl-6-[4-cyclopropyl-6-[4-fluoro-2-(3-fluoroazetidine-1-carbonyl)phenyl]pyrimidin-2-yl]-2-[[(3S)-3-methylpiperidin-1-yl]methyl]—1H-pyrrolo[2,3-c]pyridin-7-one] | > 5000 nM | 1000 to 5000 nM
